Patent publication US6022868A, “Substituted azacyclic or azabicyclic compounds” (Novo Nordisk Als, priority 1995, dated 2000)

Legend:
[1] = target: muscarinic acetylcholine receptors; test: inhibition of specific binding of 3H-Oxotremorine-M (3H-Oxo) to rat cortical receptors; conditions: 3H-Oxo 1.0 nM, 25° C., 30 min
From the text: Furthermore, the pharmacological properties of the compounds of the invention can also be illustrated by determining their capability to inhibit the specific binding of ^3 H-Oxotremorine--M (^3 H-Oxo). Birdsdall N.J.M., Hulme E.C., and Burgen A.S.V. (1980). "The Character of Muscarinic Receptors in Different Regions of the Rat Brain". Proc. Roy. Soc. London (Series B) 207,1.
^3 H-Oxo labels muscarinic receptor in the CNS (with a preference for agonist domains of the receptors). Three different sites are labelled by ^3 H-Oxo. […] Using the present experimental conditions only the high and medium affinity sites are determined.
The inhibitory effects of compounds on ^3 H--Oxo binding reflects the affinity for muscarinic acetylcholine receptors.
All preparations are performed at 0-4° C. unless otherwise indicated. […]
The final pellet is homogenized in 20 mM Hepes pH: 7.4 (100 ml per g of original tissue) and used for binding assay. […] Non-specific binding is determined in triplicate using arecoline (1 ug/ml, final concentration) as the test substance. […] The amount of radioactivity on the filters are determined by conventional liquid scintillation counting. […]
Table I illustrates the affinity of the compounds of the present invention for nicotinic and muscarinic receptors as determined by ^3 H-MCC and ^3 H-Oxo binding to rat cortical receptors. […]

[2] = target: T1, nicotinic acetylcholine receptors (Rattus norvegicus, UniProt P09483+P12390); test: inhibition of specific binding of 3H-methylcarbamylcholine (3H-MCC) to rat cortical receptors; conditions: for IC50: rat cortical receptors, 3H-MCC 2 nM, 0° C., 60 min; for Oxo/MCC Ratio: selectivity for nicotinic (3H-MCC) over muscarinic (3H-Oxo) receptors, rat cortex
T1 construct: Fresh or frozen rat, brain tissue (hippocampus or cortex) was homogenized in assay buffer; from tissue; host or cells: rat brain tissue (hippocampus or cortex)
From the text: The pharmacological properties of the compounds of the invention can be illustrated by determining their capability to inhibit the specific binding of ^3 H-methylcarbamylcholine (^3 H-MCC) (Abood and Grassi, Biochem. Pharmacol., Vol. 35, pp. 4199-4202, (1986)).
^3 H-MCC labels the nicotinic receptors in the CNS. The inhibitory effect on ^3 H-MCC binding reflects the affinity for nicotinic acetylcholine receptors.
Fresh or frozen rat, brain tissue (hippocampus or cortex) was homogenized in assay buffer (5OmM Tris--HCI, pH 7.4, 120 mM NaCI, 5 mM KCI, 2 mM CaCI21 1mM MgCI2) and centrifuged for 10 min. at 40.000×g.Pellets were subsequently reconstituted in assay buffer and an appropriate amount of tissue sample was mixed in tubes with ^3 H--methylcarbamylcholine (NEN, NET--951; final concentration 2 nM) and test drug. The tubes were incubated at 0° C. for 60 min. Unbound ligand was separated from bound ligand by vacuum filtration through GF/B filters presoaked in 0.5 % polyethylenimine. Filters were washed three times with 5 ml wash buffer (50mM Tris--HCI, pH 7.4) and transferred to vials. 4 ml scintillation fluid was added and the radioactivity was measured by scintillation counting. Unspecific binding was measured with 10 μM nicotine.
The IC50 values of the test compounds were determined by nonlinear regression analyses (GraphPad InPlot).
Table I illustrates the affinity of the compounds of the present invention for nicotinic and muscarinic receptors as determined by ^3 H-MCC and ^3 H-Oxo binding to rat cortical receptors. The compounds, however, show selective affinity for nicotinic receptors as compared to muscarinic receptors, i.e OXO/MCC >1.

[3] = test system: dopamine release in the nucleus accumbens; conditions: cited from earlier work
[4] = test system: dopaminergic effects in various behavioral models; conditions: cited from earlier work
substantia nigra = conditions: chronic nicotine; cited from earlier work
[5] = in vivo; cited from earlier work

T1 sequence (P09483 31-630): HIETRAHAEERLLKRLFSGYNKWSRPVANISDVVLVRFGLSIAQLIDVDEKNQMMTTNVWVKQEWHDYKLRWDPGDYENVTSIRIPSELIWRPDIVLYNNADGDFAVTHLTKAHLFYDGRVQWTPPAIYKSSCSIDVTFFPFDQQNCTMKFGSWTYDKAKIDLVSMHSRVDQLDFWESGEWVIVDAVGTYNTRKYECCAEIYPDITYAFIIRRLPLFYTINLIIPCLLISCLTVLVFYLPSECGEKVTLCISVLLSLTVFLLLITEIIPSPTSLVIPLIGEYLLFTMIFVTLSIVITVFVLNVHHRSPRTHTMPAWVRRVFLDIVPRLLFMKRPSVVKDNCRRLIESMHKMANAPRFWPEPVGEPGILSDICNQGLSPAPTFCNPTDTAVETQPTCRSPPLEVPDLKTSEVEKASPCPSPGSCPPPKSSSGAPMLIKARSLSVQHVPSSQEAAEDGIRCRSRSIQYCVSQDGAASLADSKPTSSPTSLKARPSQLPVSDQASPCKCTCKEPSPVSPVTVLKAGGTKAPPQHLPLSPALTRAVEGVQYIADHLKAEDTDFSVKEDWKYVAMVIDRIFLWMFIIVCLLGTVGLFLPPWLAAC
T1 sequence (P12390 25-500): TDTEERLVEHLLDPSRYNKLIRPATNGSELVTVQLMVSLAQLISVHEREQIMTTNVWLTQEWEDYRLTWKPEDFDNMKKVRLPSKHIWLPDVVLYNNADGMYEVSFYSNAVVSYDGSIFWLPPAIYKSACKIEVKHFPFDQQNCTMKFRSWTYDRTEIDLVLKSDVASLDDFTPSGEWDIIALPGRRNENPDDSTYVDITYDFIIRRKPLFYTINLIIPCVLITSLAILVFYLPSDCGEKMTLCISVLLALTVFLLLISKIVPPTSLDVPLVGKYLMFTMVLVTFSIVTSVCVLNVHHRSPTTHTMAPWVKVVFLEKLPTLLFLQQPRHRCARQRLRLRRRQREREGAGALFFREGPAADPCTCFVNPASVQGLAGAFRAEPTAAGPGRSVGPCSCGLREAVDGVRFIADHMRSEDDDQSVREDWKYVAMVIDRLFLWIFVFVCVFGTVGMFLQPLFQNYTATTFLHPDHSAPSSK

With `Cc1cc(/C=C2/CCCN(C)C2)on1.O=C(O)C(=O)O` [Compound 1, (Z)-3-(3-Methyl-5-isoxazolyl)methylene-1-methylpiperidine oxalate] the IC50 [1] was 5.15 µM, the IC50 [2] was 3.05 µM and the “Oxo/MCC Ratio” value [2] was 1.7.

In the case of `Cc1cc(/C=C2/CCCNC2)on1.Cl` [Compound 5, (Z)-3-(3-Methyl-5-isoxazolyl)methylenepiperidine hydrochloride], the IC50 [1] is reported as 10 µM, the IC50 [2] is reported as 0.1 µM and the “Oxo/MCC Ratio” value [2] is reported as 100.

In the case of `CN1CCCC1c1cccnc1` (stereo not shown) [nicotine], the “stimulation of dopamine release, nucleus accumbens versus striatum” value [3] is given as “stimulates dopamine release in the nucleus accumbens more potently than in striatum”, the “potentiation of dopaminergic effects” value [4] is given as “will potentiate dopaminergic effects in various behavioral models” and the “protection against cell loss in the substantia nigra caused by lesioning” value (substantia nigra) is given as “may protect against cell loss in the substantia nigra caused by lesioning”. For the same compound, the “effect in Tourette's syndrome” value [5] was “beneficial effects in Tourette's syndrome”.
